The source made the active and inactive calls. The rule behind the calls is not given here.
How the values were obtained:
[1] = species on record: Homo sapiens; assay: (§1) Cytotoxicity against human NSCLC-N6-L16 cells; type: functional, cell-based
[2] = as §1; type: functional, cell-based

SMILES | Activity [1] | IC50 [2] [µM]
C[C@H]1CC[C@@H]2OC(C)(C)C(=O)CC[C@@]2(C)[C@]12CC[C@@H]([C@@]1(C)CC[C@@H]3OC(C)(C)C(=O)CC[C@]31C)O2 | inactive | 
CC1=C(CC[C@H]2[C@]3(C)CCC(=O)C(C)(C)O[C@H]3CC[C@]2(C)O)[C@@]2(C)CCC(=O)C(C)(C)C2=C(O)C1=O [SODWANONE A] |  | 12
C[C@H]1CC[C@@H]2OC(C)(C)C(=O)CC[C@@]2(C)[C@]12C[C@H](O)[C@@H]([C@@]1(C)CC[C@@H]3OC(C)(C)C(=O)CC[C@]31C)O2 [YARDENONE A] |  | > 60
C[C@H]1CC[C@@H]2OC(C)(C)[C@H](O)CC[C@@]2(C)[C@]12C[C@H](O)[C@@H]([C@@]1(C)CC[C@@H]3OC(C)(C)C(=O)CC[C@]31C)O2 [YARDENONE B] |  | > 31

Reference: ChEMBL document CHEMBL1158882, “Yardenone A and B: new cytotoxic triterpenes from the Indian Ocean sponge Axinella cf. bidderi” (J Nat Prod, 2003)
